Test systems include SK-MEL-2; NCI-H522; ACHN; SNB-75; SK-MEL-28; CAKI-1; OVCAR-8; SF-295; SNB-19; SF-539; A549; HOP-62; NCI-H23; HT-29; SK-OV-3.
What all share (experiment): inhibition of tumour cell growth, NCI panel, 48 h

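Dose response: 5 concentrations. Exposure: 48 h. Format: 96-well plates. Endpoint: linear interpolation; highest concentration if not reached. GI50 = concentration required for 50% inhibition of growth.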 Active and inactive are the calls of the source. Cut-off read from the data, not from the text of the source: active = GI50 up to about 1.1 µM and inactive = higher. Some results are limits rather than exact numbers.

Regarding `COc1cccc2cc(C)c(C(=O)c3ccccc3)nc12`, the GI50 in the experiment with SK-MEL-2 is > 100 µM (inactive); in the experiment with NCI-H522, > 100 µM (inactive); in the experiment with ACHN, > 100 µM (inactive); in the experiment on SNB-75, 91.2 µM (inactive); in the experiment with SK-MEL-28, > 100 µM (inactive); in the experiment on CAKI-1, > 100 µM (inactive). The GI50 in the experiment with OVCAR-8, with SF-295, in the experiment on SNB-19, in the experiment with SF-539, in the experiment on A549 and with HOP-62 was > 100 µM (inactive) in each case. Further, the GI50 with NCI-H23 was > 100 µM (inactive).
Consider `NC(CSSCC(N)Cc1ccccc1)Cc1ccccc1` (stereo not drawn), for which the GI50 in the experiment on SK-MEL-2 is 36.8 µM (inactive); in the experiment with NCI-H522 it was 15.7 µM (inactive); in the experiment on ACHN, 76.4 µM (inactive); in the experiment on SNB-75, > 10 µM (inactive); in the experiment on SK-MEL-28, 43.4 µM (inactive); in the experiment with OVCAR-8, 51.3 µM (inactive). Moreover, the GI50 with HT-29 is 44 µM (inactive); in the experiment with SF-295, 41.5 µM (inactive); in the experiment with SNB-19, > 100 µM (inactive); in the experiment with SK-OV-3, 85.7 µM (inactive); in the experiment on A549 it was 65.8 µM (inactive); with HOP-62, > 100 µM (inactive). Further, the GI50 in the experiment with NCI-H23 was 44.4 µM (inactive).
On to `N/N=c1/nc2n(c3ncccc13)C=CNN2`, for which the GI50 in the experiment on SK-MEL-2, in the experiment with NCI-H522, with ACHN, in the experiment on SK-MEL-28, in the experiment on CAKI-1 and with OVCAR-8 was > 100 µM (inactive) in each case. The GI50 in the experiment on HT-29, in the experiment with SF-295, in the experiment on SNB-19, with SK-OV-3, in the experiment on SF-539 and with A549 was > 100 µM (inactive) throughout. Also, the GI50 in the experiment with HOP-62 and with NCI-H23 was > 100 µM (inactive) each time.
With `CCOC1=NC(=O)CC(c2ccccc2)S1` (stereo not drawn), the GI50 with SK-MEL-2, in the experiment with ACHN, in the experiment with CAKI-1, in the experiment with OVCAR-8, with HT-29 and with SF-295 was > 100 µM (inactive) throughout. Further, the GI50 in the experiment with SNB-19, in the experiment with SF-539 and in the experiment on A549 was > 100 µM (inactive) throughout.
As to `COC(=O)c1cc(=O)nc2cc3cccccc3n12`, the GI50 in the experiment on NCI-H522, with ACHN, with SNB-75, in the experiment with SK-MEL-28, in the experiment on OVCAR-8 and in the experiment on HT-29 was > 100 µM (inactive) in each case. The GI50 in the experiment with SF-295, in the experiment on SNB-19, in the experiment on SK-OV-3, in the experiment with SF-539, with A549 and with HOP-62 was > 100 µM (inactive) in each case. Moreover, the GI50 in the experiment with NCI-H23 is > 100 µM (inactive).
`CCSc1nnc(CSc2nc(-c3ccccc3)c(-c3ccccc3)[nH]2)n1-c1ccccc1`: the GI50 in the experiment with SK-MEL-2 is 21.7 µM (inactive); in the experiment on NCI-H522, 16.4 µM (inactive); with ACHN, 17.2 µM (inactive); in the experiment with SNB-75, 18.4 µM (inactive); in the experiment with SK-MEL-28 it was 21 µM (inactive); in the experiment on CAKI-1, 23.7 µM (inactive). Further, the GI50 was 21.6 µM (inactive) in the experiment with OVCAR-8; 19.4 µM (inactive) with HT-29; 23.1 µM (inactive) with SF-295; 16.1 µM (inactive) with SNB-19; 26.4 µM (inactive) with SK-OV-3; 29.9 µM (inactive) with A549. In addition, the GI50 was 20.2 µM (inactive) in the experiment with HOP-62 and 21 µM (inactive) in the experiment on NCI-H23.
Take `O=C(/C(=C\c1ccc(Cl)cc1)c1ccccc1)c1ccccc1`: the GI50 with SK-MEL-2 is 11.7 µM (inactive); in the experiment on NCI-H522, 31.6 µM (inactive); with ACHN, 38.8 µM (inactive); in the experiment with SNB-75, 88.9 µM (inactive); with SK-MEL-28, > 100 µM (inactive); in the experiment with OVCAR-8 it was > 100 µM (inactive). In addition, the GI50 with HT-29 was 43.8 µM (inactive); with SF-295, 94.4 µM (inactive); in the experiment on SK-OV-3, > 100 µM (inactive); in the experiment with SF-539 it was > 100 µM (inactive); in the experiment on HOP-62 it was 63.2 µM (inactive); in the experiment with NCI-H23, 72.6 µM (inactive).
Regarding `COc1c(C)cc2c(c1O)C1C3[C@H]4SC[C@@]5(NCCC6=C5NC5C=CC=CC65)C(=O)OCC(c5c6c(c(C)c(OC(C)=O)c54)OCO6)N3[C@@H](O)C(C2)N1C` (stereo partly drawn), the GI50 in the experiment on SK-MEL-2 was < 0.01 µM (active); in the experiment with ACHN, < 0.01 µM (active); in the experiment with SNB-75, < 0.01 µM (active); in the experiment with SK-MEL-28, 0.0134 µM (active); in the experiment on OVCAR-8, < 0.01 µM (active); in the experiment with HT-29, < 0.01 µM (active). Further, the GI50 in the experiment on SF-295, in the experiment with SNB-19, with SF-539, in the experiment with A549, in the experiment on HOP-62 and in the experiment on NCI-H23 was < 0.01 µM (active) in each case.
For the compound `O=C1CC(c2c[nH]c3ccccc23)C(=O)N1` (stereo not drawn), the GI50 in the experiment with SK-MEL-2, with ACHN, with SNB-75, in the experiment with SK-MEL-28, with CAKI-1 and in the experiment on OVCAR-8 was > 100 µM (inactive) throughout. In addition, the GI50 in the experiment on HT-29, in the experiment with SF-295, with SK-OV-3, with SF-539, in the experiment with A549 and in the experiment on HOP-62 was > 100 µM (inactive) each time. Further, the GI50 in the experiment with NCI-H23 was > 100 µM (inactive).
As to `N#CC1CCCCOCCOCCOCCOCCOCCCCCC1=O` (stereo not drawn), the GI50 in the experiment with SK-MEL-2, in the experiment with NCI-H522, with ACHN, in the experiment on SNB-75, with SK-MEL-28 and with CAKI-1 was > 100 µM (inactive) throughout. In addition, the GI50 in the experiment on OVCAR-8, in the experiment on HT-29, in the experiment with SF-295, in the experiment on SNB-19, in the experiment with SK-OV-3 and in the experiment on A549 was > 100 µM (inactive) in each case. In addition, the GI50 in the experiment with HOP-62 and in the experiment with NCI-H23 was > 100 µM (inactive) throughout.
For `Cc1cc(Br)cc(C)c1NC(=O)C(=O)C(C(=O)c1ccncc1)C1OC(=O)c2ccccc21` (stereo not drawn), the GI50 in the experiment with NCI-H522, in the experiment with ACHN, with CAKI-1, with OVCAR-8, in the experiment on SNB-19 and in the experiment with SK-OV-3 was > 100 µM (inactive) throughout. Further, the GI50 with A549, in the experiment on HOP-62 and in the experiment with NCI-H23 was > 100 µM (inactive) each time.
`Cc1cn(C2CC(N(O)Cc3ccccc3)C(CO)O2)c(=O)[nH]c1=O` (stereo not drawn): the GI50 with ACHN, in the experiment on SNB-75, with SK-MEL-28, with OVCAR-8, with HT-29 and with SF-295 was > 100 µM (inactive) each time. The GI50 with SNB-19, in the experiment on SK-OV-3, with SF-539, in the experiment with A549, with HOP-62 and with NCI-H23 was > 100 µM (inactive) each time.
Turning to `CCOC(=O)Nc1ccc(S(=O)(=O)OC)cc1.CCOC(=O)Nc1ccc(S(=O)(=O)OC)cc1.Nc1ncnc2c1ncn2C1OC(CO)C(O)C1O` (stereo not drawn), the GI50 in the experiment on SK-MEL-2, with ACHN, with SNB-75, with SK-MEL-28, with CAKI-1 and in the experiment with OVCAR-8 was > 100 µM (inactive) in each case. For the same compound, the GI50 was 26.3 µM (inactive) in the experiment with HT-29; > 100 µM (inactive) in the experiment with SF-295; > 100 µM (inactive) in the experiment with SNB-19; > 100 µM (inactive) in the experiment on SK-OV-3; > 100 µM (inactive) with SF-539; 34.3 µM (inactive) with A549. The GI50 in the experiment on HOP-62 and with NCI-H23 was > 100 µM (inactive) each time.
Consider `C/C(CCn1[nH]c(=O)ccc1=O)=N\O`, for which the GI50 with SK-MEL-2, in the experiment on ACHN, in the experiment on SNB-75, in the experiment on SK-MEL-28, with CAKI-1 and in the experiment with OVCAR-8 was > 100 µM (inactive) each time. Also, the GI50 in the experiment on HT-29, in the experiment with SF-295, in the experiment on SNB-19, with SF-539, with A549 and in the experiment with HOP-62 was > 100 µM (inactive) each time. For the same compound, in the experiment on NCI-H23, the GI50 was > 100 µM (inactive).
Consider `Cc1cc(C)nc(NS(=O)(=O)c2ccc(Nc3c4ccccc4nc4c(C(=O)NCCN(C)C)ccc(Cl)c34)cc2)n1`, for which the GI50 in the experiment with SK-MEL-2 is 3.61 µM (inactive); in the experiment with NCI-H522, 1.24 µM (inactive); in the experiment on ACHN, 2.02 µM (inactive); in the experiment on SNB-75 it was 2.59 µM (inactive); in the experiment on SK-MEL-28, 5.4 µM (inactive); in the experiment with OVCAR-8 it was 0.681 µM (active). The GI50 in the experiment with HT-29 was 0.659 µM (active); in the experiment on SF-295, 1.45 µM (inactive); in the experiment on SNB-19, 1.45 µM (inactive); in the experiment with SF-539 it was 2.36 µM (inactive); in the experiment with A549 it was 0.942 µM (active); in the experiment on HOP-62 it was 2.85 µM (inactive). In addition, the GI50 in the experiment on NCI-H23 is 2.43 µM (inactive).

The values are drawn from ChEMBL document CHEMBL1201862, “PubChem BioAssay data set” (2004).
